Measured values from patent US11168319B1, “Plant cell culture” (Inari Agriculture Technology, Inc., priority 2017, dated 2021).

System: maize A188 protoplasts
Experiment: Protoplast viability (Evans blue staining / light microscope / hemocytometer)
Assay type: cell-based
Details: for Viability (%): 100 mM Ca; for viability / appearance: 50 millimolar; for protoplast viability: 288 hours, YPIM B- medium
Protocol: Separate suspensions of maize B73 and A188 protoplasts (2×10^5 cells per milliliter) were prepared in YPIM B-liquid medium containing various combinations of the added salts calcium chloride, potassium ascorbate, and magnesium chloride or magnesium sulfate. One-half milliliter aliquots of the suspensions were dispensed into a 24-well microtiter plate in the arrangement shown in Table 2, which lists the concentrations of calcium chloride (“Ca”), potassium ascorbate (“A”), and magnesium chloride (“MgCl2”) or magnesium sulfate (“MgSO4”) in millimolar values.
Viability was judged by Evans blue staining and visualization under a light microscope.
Separate suspensions of maize A188 protoplasts (2×10^5 cells per milliliter) were prepared in YPIM B-liquid medium containing calcium chloride at 0 or 50 millimolar. One-half milliliter aliquots of the suspensions were dispensed into a 24-well microtiter plate.
Viability was judged by visualization under a light microscope.
Separate suspensions of maize B73 and A188 protoplasts (2×10^5 cells per milliliter) were prepared in PIM B-liquid medium (identical to YPIM B-medium except with the 6-benzylaminopurine substituted with 0.022 milligrams/L thidiazuron) containing calcium chloride added at 0 or 50 millimolar. One-half milliliter aliquots of the suspensions were dispensed into a 24-well microtiter plate.
Separate suspensions of maize B73 and A188 protoplasts (2×10^5 cells per milliliter) were prepared in YPIM B-liquid medium containing (a) calcium chloride added at 100 millimolar, or (b) 1 millimolar glutathione, or (c) no added calcium or glutathione. One-milliliter aliquots of the suspensions were dispensed into a 24-well microtiter plate. At 16, 40, 64, and 136 hours of culture, 50-microliter samples were taken for hemocytometer analysis from each well; for the plates containing maize A188 protoplasts, parallel 50-microliter samples were taken from a replicate well at 16, 40, and 64 hours of culture for quantification using a Cellometer cell counter (Nexcelom Bioscience LLC, Lawrence, Mass.).
Viability was determined by Evans blue staining and quantification using a hemocytometer. Under conditions with high concentrations of calcium, Evans blue can create precipitates that interfere with cell counting; to prevent this, 5 microliters of an EDTA solution was added to the samples from the wells containing 100 millimolar calcium chloride immediately prior to staining.

`[Ca+2].[Cl-].[Cl-]` [calcium chloride] was tested, and the “Viability (%)” value (0 hours, hemocytometer) was 90%, the “Viability (%)” value (16 hours) was 67% and the “Viability (%)” value (40 hours) was 57%. For the same compound, the “Viability (%)” value (64 hours) was 59%, the “Viability (%)” value (136 hours) was 46% and the viability / appearance (96 hours, vs no added calcium) was “appeared healthier”. The viability / appearance (168 hours (7 days)) was “very many large, healthy-looking protoplasts”, the protoplast viability (50 mM added salt) was “about 20%” and the protoplast viability (100 mM added salt) was “about 70%”. The viability (day 6, PIM B- medium, 50 millimolar calcium, several wells) was 100% and the “cell wall regeneration and cell division” value (day 20, 50 millimolar) was “had generated cell walls and undergone at least some cell division”.
